Measurements published in ChEMBL document CHEMBL5608176, “Binding sites and design strategies for small molecule GLP-1R agonists” (Eur J Med Chem, 2024).

Key:
[1] = molecular target: Voltage-gated inwardly rectifying potassium channel KCNH2 (Homo sapiens, UniProt Q12809); assay: Inhibition of hERG potassium channel by patch clamp assay; format: toxicity
[2] = molecular target: Glucagon-like peptide 1 receptor (Homo sapiens, UniProt P43220); assay: Agonist activity at human GLP-1 expressed in HEK293 cells assessed as […] in intracellular cAMP accumulation incubated for 60 mins by HTRF assay; format: functional, cell-based
Glucagon-like peptide 1 receptor, sequence (P43220 whole entry): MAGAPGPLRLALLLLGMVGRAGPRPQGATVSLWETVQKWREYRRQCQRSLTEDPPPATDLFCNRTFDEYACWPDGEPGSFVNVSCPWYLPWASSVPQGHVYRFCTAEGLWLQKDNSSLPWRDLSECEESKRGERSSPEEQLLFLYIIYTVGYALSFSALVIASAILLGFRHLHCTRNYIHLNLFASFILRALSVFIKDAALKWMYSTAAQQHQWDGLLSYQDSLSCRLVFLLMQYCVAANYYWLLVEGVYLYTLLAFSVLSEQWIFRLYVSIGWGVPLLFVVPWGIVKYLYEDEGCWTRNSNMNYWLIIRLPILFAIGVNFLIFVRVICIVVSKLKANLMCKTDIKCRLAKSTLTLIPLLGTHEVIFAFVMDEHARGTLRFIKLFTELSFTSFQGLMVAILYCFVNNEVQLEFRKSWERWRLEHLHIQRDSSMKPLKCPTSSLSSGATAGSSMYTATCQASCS

Voltage-gated inwardly rectifying potassium channel KCNH2, sequence (Q12809 whole entry): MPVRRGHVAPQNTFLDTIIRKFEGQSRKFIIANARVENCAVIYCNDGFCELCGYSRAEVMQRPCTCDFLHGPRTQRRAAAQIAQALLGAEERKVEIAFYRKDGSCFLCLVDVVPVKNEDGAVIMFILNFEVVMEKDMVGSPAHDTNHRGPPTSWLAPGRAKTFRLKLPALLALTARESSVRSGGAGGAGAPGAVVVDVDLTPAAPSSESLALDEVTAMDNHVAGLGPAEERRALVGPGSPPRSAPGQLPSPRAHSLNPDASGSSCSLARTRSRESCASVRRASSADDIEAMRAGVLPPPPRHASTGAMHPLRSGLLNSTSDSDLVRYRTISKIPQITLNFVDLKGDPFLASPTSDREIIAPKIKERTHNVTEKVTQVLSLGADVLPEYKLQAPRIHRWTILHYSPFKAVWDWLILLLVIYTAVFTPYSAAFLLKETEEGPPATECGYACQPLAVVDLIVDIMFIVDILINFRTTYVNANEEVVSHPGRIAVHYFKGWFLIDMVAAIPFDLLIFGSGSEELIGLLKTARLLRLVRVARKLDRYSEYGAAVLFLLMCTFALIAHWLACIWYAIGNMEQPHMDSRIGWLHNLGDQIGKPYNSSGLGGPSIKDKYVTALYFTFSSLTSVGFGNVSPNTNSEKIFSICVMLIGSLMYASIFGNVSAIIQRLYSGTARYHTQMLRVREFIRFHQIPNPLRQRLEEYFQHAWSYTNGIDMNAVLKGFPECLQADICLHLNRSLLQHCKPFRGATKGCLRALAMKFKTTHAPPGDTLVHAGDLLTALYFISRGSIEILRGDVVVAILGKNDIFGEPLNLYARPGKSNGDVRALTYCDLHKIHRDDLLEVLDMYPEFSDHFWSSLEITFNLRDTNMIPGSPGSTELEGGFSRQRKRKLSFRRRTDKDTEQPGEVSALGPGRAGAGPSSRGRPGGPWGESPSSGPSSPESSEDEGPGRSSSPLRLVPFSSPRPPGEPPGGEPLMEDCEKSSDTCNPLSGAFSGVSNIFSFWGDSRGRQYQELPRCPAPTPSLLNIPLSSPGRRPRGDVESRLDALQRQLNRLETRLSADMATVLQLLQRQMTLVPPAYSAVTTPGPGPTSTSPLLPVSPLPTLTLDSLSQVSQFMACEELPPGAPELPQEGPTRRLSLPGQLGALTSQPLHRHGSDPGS

`Cn1c(CN2CCC(c3cccc(OCc4ccc(Cl)cc4F)n3)CC2)nc2ccncc21` gave an EC50 [1] of 77 nM.
`COc1nccc(-c2ccc3c(c2)cc(C(=O)N2CCc4nn(-c5cc(C)c(F)c(C)c5)c(-n5ccn(-c6ccc7c(cnn7C)c6F)c5=O)c4[C@@H]2C)n3[C@@]2(c3noc(=O)[nH]3)C[C@@H]2C)c1C` showed an EC50 [2] of 2.7 nM.
Molecule `COCCn1ncc2c(F)c(-n3ccn(-c4c5c(nn4-c4cc(C)c(F)c(C)c4)CCN(C(=O)c4cc6cc([C@H]7CCOC(C)(C)C7)ccc6n4[C@@]4(c6noc(=O)[nH]6)C[C@@H]4C)[C@H]5C)c3=O)ccc21` has an EC50 [2] of 2.1 nM.
